Measured values as given in patent publication US20240374879A1, “METHODS AND COMPOSITIONS TO REDUCE CELLULAR DEPOSITION, AND HYDROCEPHALUS SHUNT FAILURE” (Wayne State University, priority 2021, published 2024).

Tests used:
Human astrocyte cells [1] = experiment: Delivery Method: immunofluorescence (DAPI, GFAP) of astrocytes, GIT 27 attached to PDMS or in suspension; format: cell-based
Experimental: Delivery Method: Following the nanodrop experiment, it was determined that the minimum concentration necessary to attach GIT 27 to the surface of the PDMS was 1000 μg/mL to display any attachment and release from the catheter. […] Using this concentration for sufficient surface coating, human astrocyte cells were cultured onto PDMS discs coated with GIT 27. Samples were also tested by adding GIT 27 at various concentrations in suspension within the cell culture media. Attached GIT 27 samples were conducted at concentrations 1000 and 3000 μg/mL, and for the in suspension concentrations 5, 50, and 1000 μg/mL in astrocyte media were used.
Immunofluorescence was performed using glial fibrillary acidic protein (GFAP) and 4′,6-diamidino-2-phenylindole (DAPI) solution (ThermoFisher). GFAP primary and secondaries were diluted to a ratio of 1:1000 and 5:1000, respectfully, in 0.4% Triton-X in PBS (w/v). Samples were incubated for 24 hours in each solution. After rinsing the samples with PBS, the samples were incubated in a 1:1000 DAPI solution in 0.4% Triton X solution for 30 minutes. Samples were then imaged submerged in PBS using a confocal microscope at 20× magnification and analyzed using Imaris software.

Human astrocyte cells [2] = experiment: Cell counts of human astrocytes cultured on PDMS discs, GIT 27 as pre-, simultaneous or post-treatment; format: cell-based; conditions: for number of cells compared to associated control: vs control; for % Change of average Cell Counts, GIT 27 vs DMSO treated vehicle: GIT 27 1000 μg/mL
Experimental: PDMS Catheter Creation: Catheter samples were made by creating a polydimethylsiloxane (PDMS, silicone) solution, Sylgard 184 (Dow Corning), at a ratio of 10:1 elastomer to curing agent. This solution was then homogenized and placed into a degasser to remove bubbles. Once all the air bubbles were removed, 200 μL of the PDMS solution was pipetted into a 24 well plate to create flat disk samples for cell culturing. These samples were then degassed again to ensure were no bubbles in the disks and left for 48 hours to cure on a flat substrate.
Media Creation: A media stock solution was created by combining astrocyte media (ScienCell), supplement kit, 10 mL fetal bovine serum (FBS), 5 mL penicillin/streptomycin, and 5 mL astrocyte growth serum (ScienCell), and an additional 10 mL FBS (ScienCell). IL-1β and IL-10 were diluted to a concentration of 50,000 ng/mL and 100,000 ng/mL, respectively, in phosphate buffer solution (PBS, w/v). GIT 27 was dissolved in a dimethyl sulfoxide (DMSO) vehicle (Sigma-Aldrich) to a concentration of 20 mg/mL (w/v).
Media solutions for the different groups were made directly before each media change. Cytokines IL-1β or IL-10 were added to the media stock solution for a final concentration of 14.67 ng/mL. GIT 27 was added for a concentration of 1000 μg/mL in the media stock solution for our experimental group. […] Our vehicle group contained 50 μL/mL DMSO alone, which is proportional to the amount in the GIT 27 treated group. Concentrations were then made for evaluation of dose and time dependency (FIGS. 6A-6F).
Cell Culture: Human astrocyte cells were initially grown in T75 flasks with media changes every three days using basic astrocyte media and washed with Hanks Balanced Salt Solution without Calcium and Magnesium (Gibco). Once the flasks came to confluency, the cells were trypsinized using Trypsin-EDTA at 0.25% (Gibco) and seeded at a seeding density of 250,000 cells per well. These samples were broken up into three treatment groups: control, DMSO, and GIT 27 tested as a pre-treatment, simultaneous treatment, and post-treatment (FIGS. 6A-6F). Each group and treatment time were then either exposed to IL-1β or IL-10 separately at concentrations described for media creation.
Cell Count Collection: Images were taking using a microscope (Fisher Scientific) and microscope attachable digital camera following each media change on days 1, 5, 7, 9, 12, and 14. These images were taken at approximately the center of each 24 well plate well with an area of 5.9788 mm^2. Counts were obtained using the FIJI software by converting the images to 32-bit. Contrast was enhanced to the value of 0.5 and background was subtracted to a value of 10. Finally, the threshold was set to 23-70 to obtain the cell count of each image.
Statistical Analysis: Three conditions were tested in this experiment, treatment group, treatment time, and IL B or IL10 exposure, with a total of 16 different samples tested with an n=five of replicates. The three treatment groups tested were a control, vehicle control (DMSO), and GIT 27 (G27). Each treatment group was tested as a pre-treatment (denoted Pre-), dose simultaneous to treatment (denoted Sim-), and post-treatment (denoted Post-) as time points with respect to shunt insertion represented by exposure to either IL-1β (IL1B) or IL-10 (IL10). Utilizing the abbreviations described here we combined these to allow for an easier understand of the results presented. An example of this can be control Pre-IL1B, DMSO Pre-IL1B, and G27 Pre-IL1B which represents the three treatment groups when used as a pre-treatment to IL-1β exposure.

[3] = 1000 μg/mL GIT 27 in suspension, qualitative

SMILES: O=C(O)CC1CC(c2ccccc2)=NO1 (stereo not shown) [GIT 27, 4,5-Dihydro-3-phenyl-5-isoxazoleacetic acid]
- astrocyte cell bodies (GFAP) labeling compared to all other groups (Human astrocyte cells [1]; [3]): lowest amount
- immunofluorescent total cell count (DAPI) labeling compared to all other groups (Human astrocyte cells [1]; [3]): lowest amount
- GFAP levels compared to controls with no GIT 27 exposure (Human astrocyte cells [1]; plasma etched samples with GIT 27 attached to the surface): increased levels
- cell count by treatment time (Human astrocyte cells [2]; G27 Pre-IL1B compared to G27 Post-IL1B): significantly fewer
- cell count by treatment time (Human astrocyte cells [2]; G27 Pre-IL1B compared to Sim-IL1B): insignificantly less
- cell count by treatment time (Human astrocyte cells [2]; G27 Pre-IL10 compared to G27 Post-IL10): significantly fewer
- cell count by treatment time (Human astrocyte cells [2]; G27 Sim-IL10 compared to G27 Post-IL10): significantly lower
- number of cells compared to associated control (Human astrocyte cells [2]; Post-IL1B): not significantly different
- cell count, difference between the three treatment groups (Human astrocyte cells [2]; Post-IL10): no effect
- % Change of average Cell Counts, GIT 27 vs DMSO treated vehicle (Human astrocyte cells [2]; Post-Treatment (C), exposed to IL-1β): 94.25%
- % Change of average Cell Counts, GIT 27 vs DMSO treated vehicle (Human astrocyte cells [2]; Post-Treatment (C), exposed to IL-10): −9.74%
- cell count compared to DMSO (Human astrocyte cells [2]; Pre-IL1B, vs DMSO Pre-IL1B): insignificantly lower
- cell count compared to control (Human astrocyte cells [2]; Pre-IL1B, vs control Pre-IL1B): significantly lower
- % Change of average Cell Counts, GIT 27 vs DMSO treated vehicle (Human astrocyte cells [2]; Pre-Treatment (A), exposed to IL-1β): −15.09%
- % Change of average Cell Counts, GIT 27 vs DMSO treated vehicle (Human astrocyte cells [2]; Pre-Treatment (A), exposed to IL-10): 22.97%
- number of cells compared to associated control (Human astrocyte cells [2]; Sim-IL1B): not significantly different
- cell count, difference between the three treatment groups (Human astrocyte cells [2]; Sim-IL10): no effect
- % Change of average Cell Counts, GIT 27 vs DMSO treated vehicle (Human astrocyte cells [2]; Simultaneous Treatment (B), exposed to IL-1β): 50.87%
- % Change of average Cell Counts, GIT 27 vs DMSO treated vehicle (Human astrocyte cells [2]; Simultaneous Treatment (B), exposed to IL-10): −5.50%
